The record followed here is patent US9540388B2, “P2X7 modulators” (Janssen Pharmaceutica NV, priority 2013, dated 2017).

SMILES strings stand for the structures.

Experiment [1] has as its target T1, P2X7 (Homo sapiens (Human), UniProt Q99572). Kind of experiment: Radioligand binding, recombinant human P2X7-1321N1 cell membranes, tritiated A-804598. The conditions noted are these: Table 2, additional runs. The method, then: (§1) P2X7 Antagonism in Recombinant Human P2X7 Cells or Recombinant Rat P2X7 Cells: (a) Ca^2+ Flux and (b) Radioligand Binding
(§2) human or rat P2X7-1321N1 cells were collected and frozen @−80° C. On the day of the experiment, cell membrane preparations were made according to standard published methods. […] The compound can be prepared as described in the literature. […] The assay was terminated by filtration (GF/B filters pre-soaked with 0.3% PEI) and washed with washing buffer (Tris-HCl 50 mM). The IC50 generated in the binding assay was corrected for tracer concentration and affinity of the tracer to derive at the affinity (Ki) of the test compounds. […] Data are analyzed and graphed on Graphpad Prism 5.

The target of experiment [2] is T2, rat P2X7 (Rattus norvegicus (Rat), UniProt Q64663). The experiment in a line: Radioligand binding, recombinant rat P2X7-1321N1 cell membranes, tritiated A-804598. The conditions noted are these: Table 2, additional runs. The protocol: as §1, §2
Experiment [3] concerns the target T1, P2X7. Kind of experiment: Ca2+ flux (FLIPR) in 1321N1 cells expressing recombinant human P2X7. The conditions noted are these: Table 2, additional runs; 250 μM BzATP. The format is cell-based. The method, then: as §1
(§3) 1321N1 cells expressing the recombinant human or rat P2X7 channel was cultured in HyQ DME/(HyClone/Dulbecco's Modified Eagle Medium) high glucose supplemented with 10% Fetal Bovine Serum (FBS) and appropriate selection marker. Cells were seeded at a density of 25000 cells/well (96-well clear bottom black walled plates) in 100 μl volume/well. On the day of the experiment, cell plates were washed with assay buffer, containing (in mM): 130 NaCl, 2 KCl, 1 CaCl2, 1 MgCl2, 10 HEPES, 5 glucose; pH 7.40 and 300 mOs. After the wash, cells were loaded with the Calcium-4 dye (Molecular Device) and incubated in the dark for 60 minutes. Test compounds were prepared at 250× the test concentration in neat DMSO. Intermediate 96-well compound plates were prepared by transferring 1.2 μL of the compound into 300 μL of assay buffer. A further 3× dilution occurred when transferring 50 μL/well of the compound plate to 100 μL/well in the cell plate. Cells were incubated with test compounds and dye for 30 minutes. […] The fluorescence change was measured 180 seconds after adding the agonist.
On the technique in general: A change in cytosolic calcium serves as a functional read-out for many receptors and channels.

The target in experiment [4] is T2, rat P2X7. Kind of experiment: Ca2+ flux (FLIPR) in 1321N1 cells expressing recombinant rat P2X7. The format is cell-based. The conditions noted are these: Table 2, additional runs; 250 μM BzATP. The protocol:
as §1, §3

T2 sequence (Q64663 whole entry): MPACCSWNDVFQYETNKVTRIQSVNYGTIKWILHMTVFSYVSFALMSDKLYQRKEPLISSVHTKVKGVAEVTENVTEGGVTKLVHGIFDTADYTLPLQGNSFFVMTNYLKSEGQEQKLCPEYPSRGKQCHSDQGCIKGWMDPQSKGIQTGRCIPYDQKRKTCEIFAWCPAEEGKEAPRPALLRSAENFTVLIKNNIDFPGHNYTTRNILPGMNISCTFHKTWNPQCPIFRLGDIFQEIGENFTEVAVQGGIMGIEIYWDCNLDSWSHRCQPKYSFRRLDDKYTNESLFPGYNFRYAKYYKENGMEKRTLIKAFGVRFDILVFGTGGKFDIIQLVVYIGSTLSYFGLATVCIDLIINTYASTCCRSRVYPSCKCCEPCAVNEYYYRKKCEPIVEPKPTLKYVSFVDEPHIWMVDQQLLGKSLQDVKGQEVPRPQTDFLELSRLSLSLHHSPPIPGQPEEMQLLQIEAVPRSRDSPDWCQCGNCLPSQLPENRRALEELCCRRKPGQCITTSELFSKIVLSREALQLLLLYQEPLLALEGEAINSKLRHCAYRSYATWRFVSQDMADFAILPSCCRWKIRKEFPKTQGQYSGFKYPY
T1 sequence (Q99572 whole entry): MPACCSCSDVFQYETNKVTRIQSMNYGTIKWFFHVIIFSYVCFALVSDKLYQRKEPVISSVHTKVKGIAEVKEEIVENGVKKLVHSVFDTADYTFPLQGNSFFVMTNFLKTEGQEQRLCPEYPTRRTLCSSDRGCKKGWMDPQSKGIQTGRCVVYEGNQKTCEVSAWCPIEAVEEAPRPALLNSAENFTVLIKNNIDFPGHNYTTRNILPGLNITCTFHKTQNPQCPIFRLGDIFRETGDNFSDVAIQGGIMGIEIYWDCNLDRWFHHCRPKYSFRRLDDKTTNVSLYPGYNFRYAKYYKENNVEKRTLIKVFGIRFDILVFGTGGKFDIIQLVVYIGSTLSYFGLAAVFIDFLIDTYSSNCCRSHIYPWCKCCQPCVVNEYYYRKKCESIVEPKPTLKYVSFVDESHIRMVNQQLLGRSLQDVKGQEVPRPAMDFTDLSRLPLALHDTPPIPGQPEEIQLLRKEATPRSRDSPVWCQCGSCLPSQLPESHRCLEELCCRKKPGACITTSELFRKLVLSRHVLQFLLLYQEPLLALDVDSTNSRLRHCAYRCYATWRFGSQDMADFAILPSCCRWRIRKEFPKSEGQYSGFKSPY

In the case of `Cc1nc(-c2nnc3n2C[C@H]2CCC[C@@H]3N2C(=O)c2cccc(C(F)(F)F)c2Cl)ccc1F` (stereo in doubt) [Example 193, (6R,10S)-11-{[2-Chloro-3-(trifluoromethyl)phenyl]carbonyl}-3-(5-fluoro-6-methylpyridin-2-yl)-5,6,7,8,9,10-hexahydro-6,10-epimino[1,2,4]triazolo[4,3-a]azocine], the Ki (as a rule, a dissociation constant, usually derived from enzyme kinetics or from competition with a known ligand) in experiment [1] is 70.8 nM; in experiment [2], 4.9 nM. The concentration for half-maximal inhibition (IC50) (in general, the concentration at which inhibition is half-maximal) is 30.7 nM in experiment [3] and 41.1 nM in experiment [4].
The matching figures for `Cc1ccnc(-c2nnc3n2C[C@H]2CCC[C@@H]3N2C(=O)c2cccc(C(F)(F)F)c2Cl)c1` (stereo in doubt) [Example 194, (6R,10S)-11-{[2-Chloro-3-(trifluoromethyl)phenyl]carbonyl}-3-(4-methylpyridin-2-yl)-5,6,7,8,9,10-hexahydro-6,10-epimino[1,2,4]triazolo[4,3-a]azocine]: 14.1 nM, 3.1 nM, 17.3 nM and 7.4 nM.
Turning to `O=C(c1cccc(C(F)(F)F)c1Cl)N1[C@@H]2CCC[C@H]1c1nnc(-c3cccnn3)n1C2` (stereo in doubt) [Example 195, (6R,10S)-11-{[2-Chloro-3-(trifluoromethyl)phenyl]carbonyl}-3-pyridazin-3-yl-5,6,7,8,9,10-hexahydro-6,10-epimino[1,2,4]triazolo[4,3-a]azocine], the Ki in experiment [1] was found to be 20.9 nM. Besides, the IC50 in experiment [3] is 40 nM; in experiment [4], > 10000 nM.
As to `O=C(c1cccc(C(F)(F)F)c1Cl)N1[C@@H]2CCC[C@H]1c1nnc(-c3cc(C(F)(F)F)ccn3)n1C2` (stereo in doubt) [Example 196, (6R,10S)-11-{[2-Chloro-3-(trifluoromethyl)phenyl]carbonyl}-3-[4-(trifluoromethyl)pyridin-2-yl]-5,6,7,8,9,10-hexahydro-6,10-epimino[1,2,4]triazolo[4,3-a]azocine], the Ki was found to be 21.9 nM in experiment [1] and 5.8 nM in experiment [2]. The values for the IC50 in experiment [3] and in experiment [4] were 1.6 nM and 1.7 nM, respectively.
The matching figures for `O=C(c1cccc(C(F)(F)F)c1Cl)N1[C@@H]2CCC[C@H]1c1nnc(-c3ccncn3)n1C2` (stereo in doubt) [Example 197, (6R,10S)-11-{[2-Chloro-3-(trifluoromethyl)phenyl]carbonyl}-3-pyrimidin-4-yl-5,6,7,8,9,10-hexahydro-6,10-epimino[1,2,4]triazolo[4,3-a]azocine]: 19.1 nM, 63.1 nM, 10.7 nM and 1490 nM.
Consider `O=C(c1ccnc(C(F)(F)F)c1F)N1[C@@H]2CCC[C@H]1c1nnc(-c3ccccn3)n1C2` (stereo in doubt) [Example 198, (6R,10S)-11-{[3-Fluoro-2-(trifluoromethyl)pyridin-4-yl]carbonyl}-3-pyridin-2-yl-5,6,7,8,9,10-hexahydro-6,10-epimino[1,2,4]triazolo[4,3-a]azocine], for which the inhibitory constant (Ki) was determined as 9.8 nM in experiment [1] and 6.2 nM in experiment [2]. The IC50 in experiment [3] turned out to be 20.9 nM; in experiment [4], 327 nM.
The matching figures for `O=C(c1ccnc(C(F)(F)F)c1Cl)N1[C@@H]2CCC[C@H]1c1nnc(-c3ccccn3)n1C2` (stereo in doubt) [Example 199, (6R,10S)-11-{[3-Chloro-2-(trifluoromethyl)pyridin-4-yl]carbonyl}-3-pyridin-2-yl-5,6,7,8,9,10-hexahydro-6,10-epimino[1,2,4]triazolo[4,3-a]azocine]: 25.1 nM, 5 nM, 29.5 nM and 12.7 nM.
In the case of `O=C(c1ccc(F)c(C(F)(F)F)c1Cl)N1[C@@H]2CCC[C@H]1c1nnc(-c3ccccn3)n1C2` (stereo in doubt) [Example 200, (6R,10S)-11-{[2-Chloro-4-fluoro-3-(trifluoromethyl)phenyl]carbonyl}-3-pyridin-2-yl-5,6,7,8,9,10-hexahydro-6,10-epimino[1,2,4]triazolo[4,3-a]azocine], the Ki in experiment [1] was found to be 10.7 nM; in experiment [2], 3.2 nM. The IC50 was found to be […] in experiment [3] and 10.2 nM in experiment [4].
For `Cc1c(C(=O)N2[C@@H]3CCC[C@H]2c2nnc(-c4ccccn4)n2C3)cccc1C(F)(F)F` (stereo in doubt) [Example 201, (6R,10S)-11-{[2-Methyl-3-(trifluoromethyl)phenyl]carbonyl}-3-pyridin-2-yl-5,6,7,8,9,10-hexahydro-6,10-epimino[1,2,4]triazolo[4,3-a]azocine], the Ki in experiment [1] came to 11.5 nM; in experiment [2] it was 3.2 nM. Moreover, the IC50 in experiment [3] was determined as 14 nM; in experiment [4], 726 nM.
For `O=C(c1ccc(Cl)c(F)c1Cl)N1[C@@H]2CCC[C@H]1c1nnc(-c3ccccn3)n1C2` (stereo in doubt) [Example 202, (6R,10S)-11-[(2,4-Dichloro-3-fluorophenyl)carbonyl]-3-pyridin-2-yl-5,6,7,8,9,10-hexahydro-6,10-epimino[1,2,4]triazolo[4,3-a]azocine], in that order: 3.9 nM, 5.8 nM, 17.6 nM and 462 nM.
The matching figures for `O=C(c1ccc(F)c(Cl)c1Cl)N1[C@@H]2CCC[C@H]1c1nnc(-c3ccccn3)n1C2` (stereo in doubt) [Example 203, (6R,10S)-11-[(2,3-Dichloro-4-fluorophenyl)carbonyl]-3-pyridin-2-yl-5,6,7,8,9,10-hexahydro-6,10-epimino[1,2,4]triazolo[4,3-a]azocine]: 5.3 nM, 2.2 nM, 25.3 nM and 20 nM.
